# Key:
# barnyardgrass = assay: Test B preemergence/postemergence greenhouse plant response rating 0 to 10; format: in vivo, Echinochloa crus-galli; conditions: for Plant response rating, Barnyardgrass: 0 to 10 scale
# Procedure, shortened: (§1)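 Test chemicals, dissolved in a non-phytotoxic solvent, were applied to soil at planting and, at the same time, over foliage of seedlings at the one to four leaf stage.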
# giant foxtail = assay: as above; format: in vivo, Setaria faberii; conditions: 0 to 10 scale
# Procedure, shortened: as §1
# lambsquarters = assay: as above; format: in vivo, Chenopodium album; conditions: 0 to 10 scale
# Procedure, shortened: as §1
# sugar beet = assay: as above; format: in vivo, Beta vulgaris; conditions: 0 to 10 scale
# Procedure, shortened: as §1
# velvetleaf [1] = assay: as above; format: in vivo, Abutilon theophrasti; conditions: 0 to 10 scale
# Procedure, shortened: as §1
# cotton = assay: Test C preemergence/postemergence greenhouse plant response rating 0 to 100; format: in vivo, Gossypium hirsutum; conditions: for Plant response rating, Cotton: 0 to 100 scale
# Procedure, shortened: (§2)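 Compounds in non-phytotoxic solvent applied preemergence to sandy loam one day after planting, postemergence at the 1–4 leaf stage, or to ~2.5 cm floodwater over silt loam.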
# crabgrass = assay: as above; format: in vivo, Digitaria sanguinalis; conditions: for Plant response rating, Crabgrass: 0 to 100 scale
# Procedure, shortened: as §2
# pigweed = assay: as above; format: in vivo, Amaranthusretroflexus; conditions: for Plant response rating Pigweed: 0 to 100 scale
# Procedure, shortened: as §2
# sorghum = assay: as above; format: in vivo, Sorghum bicolor; conditions: for Plant response rating, Sorghum: 0 to 100 scale
# Procedure, shortened: as §2
# velvetleaf [2] = assay: as above; format: in vivo, Abutilon theophrasti; conditions: for Plant response rating, Velvetleaf: 0 to 100 scale
# Procedure, shortened: as §2
# wild oat = assay: as above; format: in vivo, Avena fatua; conditions: for Plant response rating, Wild oat: 0 to 100 scale
# Procedure, shortened: as §2
# rice = assay: Test C flood test plant response rating 0 to 100; format: in vivo, Oryza sativa; conditions: for Plant response rating Rice Japonica: flood test species listed under POSTEMERGENCE, 0 to 100 scale
# Procedure, shortened: as §2
# alfalfa = assay: Test G preemergence/postemergence greenhouse plant response rating 0 to 100; format: in vivo, Medicago ativa; conditions: 0 to 100 scale
# Procedure, shortened: (§3)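 Pre- and postemergence treatments used compound in non-phytotoxic solvent on potted greenhouse plants grown from seed, rhizome or plant part. Postemergence plants were at the 2–4 leaf stage; damage was assessed by eye versus untreated pots after 13–21 days.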
# purple nutsedge = assay: as above; format: in vivo, Cyperus rotundus; conditions: Rate 125 g/ha, 0 to 100 scale
# Procedure, shortened: as §3
structure (smiles),measurement,setting,value
C#CCOc1cc(-c2nn3c(c2Br)CCCC3)c(F)cc1Cl [Compound 26],"Plant response rating (0 to 10 scale), Barnyardgrass","barnyardgrass; POSTEMERGENCE, Rate 50 g/ha",5
same,"Plant response rating, Barnyardgrass","barnyardgrass; POSTEMERGENCE, Rate 200 g/ha",7
same,"Plant response rating, Barnyardgrass","barnyardgrass; PREEMERGENCE, Rate 50 g/ha",2
same,"Plant response rating, Barnyardgrass","barnyardgrass; Rate 200 g/ha, PREEMERGENCE",7
same,"Plant response rating, Giant foxtail","giant foxtail; POSTEMERGENCE, Rate 50 g/ha",4
same,"Plant response rating, Giant foxtail","giant foxtail; POSTEMERGENCE, Rate 200 g/ha",6
same,"Plant response rating, Giant foxtail","giant foxtail; PREEMERGENCE, Rate 50 g/ha",6
same,"Plant response rating, Giant foxtail","giant foxtail; Rate 200 g/ha, PREEMERGENCE",10
same,"Plant response rating, Lambsquarter","lambsquarters; POSTEMERGENCE, Rate 50 g/ha",10
same,"Plant response rating, Lambsquarter","lambsquarters; POSTEMERGENCE, Rate 200 g/ha",10
same,"Plant response rating, Lambsquarter","lambsquarters; PREEMERGENCE, Rate 50 g/ha",10
same,"Plant response rating, Lambsquarter","lambsquarters; Rate 200 g/ha, PREEMERGENCE",10
same,"Plant response rating, Sugar beet","sugar beet; POSTEMERGENCE, Rate 50 g/ha",10
same,"Plant response rating, Sugar beet","sugar beet; POSTEMERGENCE, Rate 200 g/ha",10
same,"Plant response rating, Sugar beet","sugar beet; PREEMERGENCE, Rate 50 g/ha",9
same,"Plant response rating, Sugar beet","sugar beet; Rate 200 g/ha, PREEMERGENCE",10
same,"Plant response rating, Velvetleaf","velvetleaf [1]; POSTEMERGENCE, Rate 50 g/ha",10
same,"Plant response rating, Velvetleaf","velvetleaf [1]; POSTEMERGENCE, Rate 200 g/ha",10
same,"Plant response rating, Velvetleaf","velvetleaf [1]; PREEMERGENCE, Rate 50 g/ha",10
same,"Plant response rating, Velvetleaf","velvetleaf [1]; Rate 200 g/ha, PREEMERGENCE",10
same,"Plant response rating, Cotton","cotton; POSTEMERGENCE, 62 g/ha",100
same,"Plant response rating, Cotton","cotton; POSTEMERGENCE, 250 g/ha",100
same,"Plant response rating (0 to 100), Cotton","cotton; POSTEMERGENCE, Rate 4 g/ha",100
same,"Plant response rating, Cotton","cotton; PREEMERGENCE, 62 g/ha",0
same,"Plant response rating, Cotton","cotton; PREEMERGENCE, 250 g/ha",100
same,"Plant response rating (0 to 100), Cotton","cotton; PREEMERGENCE, Rate 4 g/ha",0
same,"Plant response rating (0 to 100), Cotton","cotton; Rate 16 g/ha, POSTEMERGENCE",100
same,"Plant response rating (0 to 100), Cotton","cotton; Rate 16 g/ha, PREEMERGENCE",0
same,"Plant response rating, Crabgrass","crabgrass; POSTEMERGENCE, 62 g/ha",20
same,"Plant response rating, Crabgrass","crabgrass; POSTEMERGENCE, 250 g/ha",40
same,"Plant response rating (0 to 100), Crabgrass","crabgrass; POSTEMERGENCE, Rate 4 g/ha",0
same,"Plant response rating, Crabgrass","crabgrass; PREEMERGENCE, 62 g/ha",20
same,"Plant response rating, Crabgrass","crabgrass; PREEMERGENCE, 250 g/ha",60
same,"Plant response rating (0 to 100), Crabgrass","crabgrass; PREEMERGENCE, Rate 4 g/ha",0
same,"Plant response rating (0 to 100), Crabgrass","crabgrass; Rate 16 g/ha, POSTEMERGENCE",0
same,"Plant response rating (0 to 100), Crabgrass","crabgrass; Rate 16 g/ha, PREEMERGENCE",0
same,Plant response rating Pigweed,"pigweed; POSTEMERGENCE, 62 g/ha",100
same,Plant response rating Pigweed,"pigweed; POSTEMERGENCE, 250 g/ha",100
same,"Plant response rating (0 to 100), Pigweed","pigweed; POSTEMERGENCE, Rate 4 g/ha",100
same,Plant response rating Pigweed,"pigweed; PREEMERGENCE, 62 g/ha",100
same,Plant response rating Pigweed,"pigweed; PREEMERGENCE, 250 g/ha",100
same,"Plant response rating (0 to 100), Pigweed","pigweed; PREEMERGENCE, Rate 4 g/ha",30
same,"Plant response rating (0 to 100), Pigweed","pigweed; Rate 16 g/ha, POSTEMERGENCE",100
same,"Plant response rating (0 to 100), Pigweed","pigweed; Rate 16 g/ha, PREEMERGENCE",100
same,"Plant response rating, Sorghum","sorghum; POSTEMERGENCE, 62 g/ha",50
same,"Plant response rating, Sorghum","sorghum; POSTEMERGENCE, 250 g/ha",50
same,"Plant response rating (0 to 100), Sorghum","sorghum; POSTEMERGENCE, Rate 4 g/ha",20
same,"Plant response rating, Sorghum","sorghum; PREEMERGENCE, 250 g/ha",50
same,"Plant response rating (0 to 100), Sorghum","sorghum; PREEMERGENCE, Rate 4 g/ha",0
same,"Plant response rating (0 to 100), Sorghum","sorghum; Rate 16 g/ha, POSTEMERGENCE",30
same,"Plant response rating (0 to 100), Sorghum","sorghum; Rate 16 g/ha, PREEMERGENCE",20
same,"Plant response rating, Velvetleaf","velvetleaf [2]; POSTEMERGENCE, 62 g/ha",100
same,"Plant response rating, Velvetleaf","velvetleaf [2]; POSTEMERGENCE, 250 g/ha",100
same,"Plant response rating (0 to 100), Velvetleaf","velvetleaf [2]; POSTEMERGENCE, Rate 4 g/ha",90
same,"Plant response rating, Velvetleaf","velvetleaf [2]; PREEMERGENCE, 250 g/ha",100
same,"Plant response rating (0 to 100), Velvetleaf","velvetleaf [2]; PREEMERGENCE, Rate 4 g/ha",50
same,"Plant response rating (0 to 100), Velvetleaf","velvetleaf [2]; Rate 16 g/ha, POSTEMERGENCE",100
same,"Plant response rating (0 to 100), Velvetleaf","velvetleaf [2]; Rate 16 g/ha, PREEMERGENCE",90
same,"Plant response rating, Wild oat","wild oat; POSTEMERGENCE, 62 g/ha",30
same,"Plant response rating, Wild oat","wild oat; POSTEMERGENCE, 250 g/ha",50
same,"Plant response rating (0 to 100), Wild oat","wild oat; POSTEMERGENCE, Rate 4 g/ha",20
same,"Plant response rating, Wild oat","wild oat; PREEMERGENCE, 250 g/ha",30
same,"Plant response rating (0 to 100), Wild oat","wild oat; PREEMERGENCE, Rate 4 g/ha",0
same,"Plant response rating (0 to 100), Wild oat","wild oat; Rate 16 g/ha, POSTEMERGENCE",30
same,"Plant response rating (0 to 100), Wild oat","wild oat; Rate 16 g/ha, PREEMERGENCE",0
same,"Plant response rating (0 to 100), Rice Japonica","rice; POSTEMERGENCE section, flood test, Rate 4 g/ha",40
same,"Plant response rating (0 to 100), Rice Japonica","rice; Rate 16 g/ha, under POSTEMERGENCE head (flood test species)",65
same,Plant response rating Rice Japonica,rice; 62 g/ha,80
same,Plant response rating Rice Japonica,rice; 250 g/ha,85
same,"Plant response rating, Alfalfa Var.","alfalfa; POSTEMERGENCE, Rate 125 g/ha",20
same,"Plant response rating, Alfalfa Var.","alfalfa; POSTEMERGENCE, Rate 250 g/ha",50
same,"Plant response rating, Alfalfa Var.","alfalfa; PREEMERGENCE, Rate 125 g/ha",0
same,"Plant response rating, Alfalfa Var.","alfalfa; PREEMERGENCE, Rate 250 g/ha",60
same,"Plant response rating, Purple Nutsedge",purple nutsedge; POSTEMERGENCE,0
same,"Plant response rating, Purple Nutsedge",purple nutsedge; PREEMERGENCE,0

# Source: patent US6358885B1, “Substituted phenylheterocyclic herbicides” (Mississippi State University, priority 1992, dated 2002)
